Test results taken from patent US20250270216A1, “ANTI-INFECTIVE AGENTS” (UNIVERSITY OF DUNDEE, priority 2022, published 2025).

Target: T1, Human lysyl tRNA Synthetase (KRS) (Homo sapiens, UniProt Q15046)
T1 construct: His tag with PreScission site (His PP pET15b); made in house; host or cells: E. coli BL21 (DE3)
Assay: In vitro inhibition of human lysyl tRNA synthetase (KRS), Biomol green phosphate detection
Type: biochemical
Details: 3.5 μM ATP, 6 μM L-Lysine, 5 h room temperature; read-out: Hs KRS pIC50 (converted)
Method: The gene coding for Human KRS, codon optimized for expression in E. coli, was obtained from Genscript and cloned into a His PP pET15b vector using Nde1 and Xho1 restriction sites. The resulting vector was used to transform BL21 (DE3) competent cells for protein expression. A 120 ml overnight culture was set up and grown at 37° C. 200 rpm for 16 h and used the next day to inoculate 6 litres of Autoinduction+AMP medium. This culture was grown at 37° C. for 4 h then 20° C. for 20 h. The cells were harvested by centrifugation at 3,500 g for 30 min then stored at −20° C. The resulting cell pellet was 50 g. Lysis buffer (150 ml, 25 mM HEPES/500 mM NaCl/20 mM imidazole/2 mM DTT/10% glycerol pH 7.5/protease inhibitor tablets/DNAase) was added and the pellets for defrosted at room temperature for approximately 10 min. The slurry was then passed through a Cell Disrupter (Constant Systems) set at […] to lyse the cells. The sample was then centrifuged at 40,000 g for 20 min. The supernatant was then filtered using syringe filters to 0.45 μm. The supernatant was loaded onto a 5 ml HiTrap Ni HP column that had been equilibrated with BufferA (25 mM HEPES/500 mM NaCl/20 mM Imidazole/2 mM DTT/10% Glycerol pH 7.5) at 5 ml/min using an AKTA Pure system. Once loaded the column was washed with 10 column volumes buffer A. A 5% step of Buffer B (25 mM HEPES/500 mM NaCl/500 mM Imidazole/2 mM DTT/10% Glycerol pH 7.5) was then used to wash off His rich contaminating proteins. A gradient of 5-50% B was used to elute the protein. Approximately 55 mg of protein was present in the fractions containing the HsKRS protein. The sample was then passed through a 0.2 μm filter, before loading onto a XK26/60 Superdex 200 column equilibrated with Buffer C (25 mM HEPES/150 mM NaCl/2 mM DTT/10% glycerol pH 7.0) using an AKTA Pure system at 4° C. at 2 ml/min. The sample was then dialyzed into 25 mM HEPES/500 mM NaCl//2 mM DTT/10% glycerol/0.25% azide pH 7.0. The protein was concentrated to 1 mg/ml and frozen at −80° C. Approximately 23 mg of protein was produced.
Assay Method for Measurement of In Vitro Inhibition of Human lysyl tRNA Synthetase (KRS)
Potency of compounds was determined in 10 points dose-response inhibition curves. Compounds were transferred into 384-well clear bottom plates (Greiner Bio-One, 781101) using an Echo 550 acoustic dispenser (Labcyte). Using an automatic liquid dispenser, 50 μL reaction mixes were prepared by adding 25 μL of substrate mix into all wells followed by the addition of 25 μL enzyme mix into all wells (final reaction: 30 mM Tris-HCl, pH 8.0, 40 mM MgCl2, 140 mM NaCl, 30 mM KCl, 0.01% Brij-35, 1 mM DTT, 3.5 μM ATP, 6 μM L-Lysine, 200 nM […] and 0.5 U/mL Pyrophosphatase). Complete inhibition control reactions were performed in the presence of 100 μM of control compoundand the plates were incubated at room temperature for 5 h. Reactions were stopped by the addition of Biomol green (50 μL: Enzo Life Sciences) with the amount of free phosphate detected by measuring absorbance (650 nm) after 20 min further incubation (BMG Pherastar plate reader). Counter screen assays to eliminate direct inhibition of pyrophsphatase were performed using 0.5 U/mL pyrophosphatase and 3 μM pyrophosphate as substrate in the same assay buffer (30 mM Tris-HCl, pH 8.0, 40 mM MgCl2, 140 mM NaCl, 30 mM KCl, 0.01% Brij-35, 1 mM DTT) for 5 hours at room temperature. Biomol green was added and incubated for 20 min before detection as above. Samples were run in duplicate and data was processed and analysed using ActivityBase (IDBS).

T1 sequence (Q15046 whole entry): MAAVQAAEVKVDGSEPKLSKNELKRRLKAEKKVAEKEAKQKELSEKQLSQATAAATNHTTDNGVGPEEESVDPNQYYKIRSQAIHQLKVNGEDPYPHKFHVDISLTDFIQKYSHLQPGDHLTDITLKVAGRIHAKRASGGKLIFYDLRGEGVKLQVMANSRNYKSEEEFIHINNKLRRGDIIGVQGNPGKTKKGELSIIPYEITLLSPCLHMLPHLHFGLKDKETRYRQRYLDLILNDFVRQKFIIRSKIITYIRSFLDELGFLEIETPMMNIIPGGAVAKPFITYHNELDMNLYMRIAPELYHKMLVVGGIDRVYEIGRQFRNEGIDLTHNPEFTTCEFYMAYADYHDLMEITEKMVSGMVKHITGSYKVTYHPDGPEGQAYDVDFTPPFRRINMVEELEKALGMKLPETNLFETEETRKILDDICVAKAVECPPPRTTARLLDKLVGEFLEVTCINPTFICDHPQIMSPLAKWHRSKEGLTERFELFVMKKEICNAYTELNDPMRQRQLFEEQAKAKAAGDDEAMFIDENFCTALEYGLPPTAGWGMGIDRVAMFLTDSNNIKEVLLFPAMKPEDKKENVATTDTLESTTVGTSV

| Compound | IC50 [µM] |
| --- | --- |
| Nc1nc2c(c(C(F)(F)F)n1)C(=O)N(CC1CCCC3(CC3)C1)C2 (racemic) [Compound 4, 2-amino-6-(spiro[2.5]octan-5-ylmethyl)-4-(trifluoromethyl)-6,7-dihydro-5H-pyrrolo[3,4-d]pyrimidin-5-one] | > 100 |
| Nc1nc2c(c(C(F)(F)F)n1)C(=O)N(C[C@@H]1CCC[C@H](C(F)(F)F)C1)C2 [Compound 1, 2-amino-4-(trifluoromethyl)-6-(((1R,3S)-3-(trifluoromethyl)cyclohexyl)methyl)-6,7-dihydro-5H-pyrrolo[3,4-d]pyrimidin-5-one] | 20 |
| Cc1nc(N)nc2c1C(=O)N(C[C@@H]1CCC[C@H](C(F)(F)F)C1)C2 [Compound 2, 2-amino-4-methyl-6-(((1R,3S)-3-(trifluoromethyl)cyclohexyl)methyl)-6,7-dihydro-5H-pyrrolo[3,4-d]pyrimidin-5-one] | 20 |
| Nc1nc2c(c(C(F)F)n1)C(=O)N(C[C@@H]1CCC[C@H](C(F)(F)F)C1)C2 [Compound 3, 2-amino-4-(difluoromethyl)-6-(((1R,3S)-3-(trifluoromethyl)cyclohexyl)methyl)-6,7-dihydro-5H-pyrrolo[3,4-d]pyrimidin-5-one] | > 100 |
